Results on eight compounds are retold here after US6106872A, “Process for obtaining aroma components and aromas from their precursors of a glycosidic nature, and aroma components and aromas thereby obtained” (Gist-brocades NV, priority 1988, dated 2000).

A short description of assay [1]: Enzymatic hydrolysis of a glycosidic extract (TLC and GC monitoring). The assay is classed as biochemical, Muscat de Frontignan variety grapes. To be noted: for % of monoglucosides: Table 5, both enzymes together; for Terpene monoglucosides liberated by α-arabinosidase / Terpene monoglucosides liberated by α-rhamnosidase: Table 5, percentage of the total amount liberated by the two enzymes. How it is done: Thin-layer adsorption chromatography was carried out on pieces of aluminum foil covered with a thin layer (0.2 mm) of silica gel (5553 Silica gel 60 without a fluorescence indicator, Merck). An ethyl acetate/isopropanol/water (65:30:10 v/v/v) mixture was used as a migration solvent.
The sugars and the glycosides are visualized by means of the following mixture, prepared immediately before use: 0.2% napthoresorcinol in ethanol/concentrated sulphuric acid (19:1 v/v). The application of this visualizing agent is followed by drying the plates in the oven (105° C.) for 15 minutes. Apart from their migration distance, the various compounds are also distinguished by their color. The glycosides are purple-red, the arabinosides are bluish, rhamnose greenish pink, arabinose blue and glucose pink.
40 μl of glycosidic extract and 60 μl of a solution of Glc-pNP (internal standard) at a concentration of 50 mg/l in ethyl acetate are introduced into a suitable flask. The mixture is taken to dryness at 40° C. with a stream of nitrogen. 40 μl of the silylating reagent (Tri-sil, Pierce, Rockford, Ill., USA) are then introduced; the flask is sealed and maintained at 40° C. for 20 minutes. After rapid cooling, the silylated sample is then ready for analysis by GC.
The apparatus used consists of a Series 30C gas chromatograph, an "on-column" injector (injected volume 0.5 μl) and a flame ionization detector (Girdel, France). A thin film (0.20 μm) of an OV-1 (girdel) apolar silicone phase is grafted onto the inner wall of the capillary column ([…].). The oven temperature is programmed from 125 to 305° C. at the rate of 5° C./minute, then maintained at 305° C. for 15 minutes. Finally, the detector temperature is set at 300° C. and hydrogen is used as the carrier gas at a pressure of 120 kPa.
The monoterpene alcohols studied here are sufficiently volatile to be chromatographed as they are. To the pentane extract containing them, the internal standard, 4-nonanol (for synthesis, Merck, Darmstadt, FRG) is added in the proportion of 1 μl of a solution at a concentration of 2.89 mg/ml in pentane per 50 μl of medium. The mixture is then dried over sodium sulphate, filtered through glass wool and then concentrated to a volume in the region of 100 μl. For this purpose, the pentane is first removed using a conventional still, and then a Dufton type column of a size suited to the volume remaining to be concentrated.
The constituents of the concentrated extract are separated using a capillary column (25 m×0.32 mm I.D.) containing a CP wax 52 CB (Chrompack, Middelburg, Netherlands) polar phase. The grafted polyethylene glycol film was selected thick (1.28 μm) in order to permit the injection of large sample volumes, up to 4 μl. The analysis is performed using a Fractovap Series 2900 (Carlo Erba, Milan, Italy) chromatograph, equipped with a flame ionization detector maintained at 250° C. and an "on-column" injector. Hydrogen was used as the carrier gas at a pressure of 60 kPa, and the oven temperature was programmed as follows: isothermal at 70° C. for 5 minutes, followed by a rise to 195° C. at the rate of 2° C./minute and a plateau at 195° C. for 15 minutes.
The glycosidic extract was obtained by extraction of a must of Muscat de Frontignan variety grapes collected at maturity in the vines of the Station Experimentale de Pech Rouge (INRA Gruissan, France), followed by removal of the free terpenols and sugars.
The glycoside fraction was taken to dryness under vacuum and then taken up in 18 ml of water. The glycosidic extract used in the chromatographic and enzymatic experiments was thereby obtained.
The experimental protocols for the enzymatic hydrolysis on the glycosidic extract are collated in Table 3. […]

Assay [2] can be described thus: Sequential enzymatic hydrolysis of HPLC fractions (peaks A and B), GC analysis. The assay is classed as biochemical, Muscat de Frontignan variety grapes. The procedure:
The benefits of high performance liquid chromatography were exploited for isolating some terpene glycosides. For this purpose, fractions were collected as they emerged from the chromatographic system (more especially on elution of the peaks A and B) during the separation of the constituents of the glycosidic extract. (FIG. 10 below). Fifteen successive injections of 20 μl each enabled sufficient material to be isolated for the enzymatic hydrolyses and the analyses by GC to be performed in order to identify the compounds in question.
The chromatographic system consists of the following components: a Vista 5500 chromatograph equipped with a variable wavelength UV/visible spectrophotometer (Varian Assoc., Sunnyvale, Calif., USA); a six-way injection valve (Valco) equipped with a 20-μl loop; a stainless steel column (220×4 mm I.D.) filled with Spheri-5 (Brownlee Labs., Santa Clara, Calif., USA) octadecyl grafted silica of small particle size (5 μm); as well as a precolumn (37×4 mm I.D.) packed with the same stationary phase.
The chromatography is carried out using a water/-acetonitrile aqueous-organic mobile phase (reversed-phase polarity chromatography) and an elution graduated according to an increase in the acetonitrile content from 30 to 40% (by volume) in the course of 10 minutes. The elution solvent is pumped at a flow rate of 1 ml/min. The detection is performed at 200 nm and 0.5 absorbance unit full-scale.
Furthermore, each fraction was subjected to the sequential action of α-arabinosidase and then β-glucosidase. At the end of each stage and according to the procedures described, the incubated medium was analysed by GC in order to test for sugars and glucosides on the one hand, and for terpenols on the other hand. Thus, the peaks A and B were identified, respectively, as neryl and geranyl α-L-arabinofuranosyl-β-D-glucopyranosides. The identity of the geranyl glycoside was verified, in addition, by co-injection of the glycosidic extract with the synthetic compound.

Assay [3] is described as follows: Enzymatic hydrolyses on synthetic substrates (TLC, pNP, GC). As to conditions: from the synthetic glycosides. Format: biochemical.
From the text: The enzymatic hydrolysis is followed by thin-layer chromatography (TLC) and by gas chromatography (GC).
In all the tests relating to the enzymatic hydrolysis of the synthetic substrates, the same glycosidase activity (0.15 nkat) is used for each of the enzymes (α-arabinosidase, α-rhamnosidase, β-glucosidase).
The nature of assay [4]: Enzymatic hydrolysis on natural media by commercial enzyme preparations. To be noted: Hemicellulase + Naringinase, 25° C., 86 hours. The assay is classed as biochemical, Muscat d'Alexandrie variety grapes. How it is done:
The enzymatic hydrolysis of a glycosidic extract incorporated, on the one hand into a natural medium (must or dry wine), and on the other hand into a reference medium (buffer), by the action of commercial preparations containing the requisite three glycosidases, was studied.
A juice and a wine of a vine variety not containing terpenols and terpene glycosides, but enriched beforehand with a known amount of glycosidic extract of muscat, are treated with commercial enzyme preparations. The media, as well as controls, are incubated at 25° C. for 86 hours (see the experimental protocol plan below). They are then passed through a column of Amberlite XAD-2 according to the protocol applied for the production of the glycosidic extract, and the terpenols are assayed by GC.
(4) The glycosidic extract used is obtained by passing a must of Muscat d'Alexandrie variety grapes through Amberlite XAD-2. The amount of glycosidic extract (1 ml) added in the tests corresponds to that found in 50 ml of must of Muscat d'Alexandrie variety grapes.

The structures appear in SMILES notation. Entries after “also recorded” stand apart in the source; their conditions may differ.

`CC(C)=CCC/C(C)=C\CO[C@@H]1O[C@H](CO)[C@@H](O)[C@H](O)[C@H]1O` [Glc--Ner, neryl β-D-glucopyranoside]: in assay [1], the “% of monoglucosides” value turned out to be 33%, the “Terpene monoglucosides liberated by α-arabinosidase” value is listed as 28% and the “Terpene monoglucosides liberated by α-rhamnosidase” value amounted to 5%.

With `CC(C)=CCC/C(C)=C/CO[C@@H]1O[C@H](CO[C@@H]2O[C@@H](CO)[C@H](O)[C@H]2O)[C@@H](O)[C@H](O)[C@H]1O` (single isomer, unassigned) [Peak B, geranyl α-L-arabinofuranosyl-(1--> 6)-β-D-glucopyranoside], in assay [2], the “Compounds appearing after action of α-arabinosidase” value was “arabinose; also recorded: Glc--Ger”; the “Compounds appearing after action of α-arabinosidase and then β-glucosidase” value is reported as “glucose; also recorded: geraniol”.

On to `CC(C)=CCC/C(C)=C/CO[C@@H]1O[C@H](CO)[C@@H](O)[C@H](O)[C@H]1O` [Glc--Ger, geranyl β-D-glucopyranoside], for which, in assay [1], the “% of monoglucosides” value was found to be 48%, the “Terpene monoglucosides liberated by α-arabinosidase” value is reported as 39% and the “Terpene monoglucosides liberated by α-rhamnosidase” value is listed as 9%.

Turning to `C=CC(C)(CCC=C(C)C)O[C@@H]1O[C@H](CO)[C@@H](O)[C@H](O)[C@H]1O` (stereo partly drawn) [Glc--Lin, linalyl β-D-glucopyranoside], in assay [1], the “% of monoglucosides” value is 19%, the “Terpene monoglucosides liberated by α-arabinosidase” value was 10% and the “Terpene monoglucosides liberated by α-rhamnosidase” value worked out at 9%.

On to `O=[N+]([O-])c1ccc(O)cc1` [pNP, p-nitrophenol], for which the “liberation of the aglycones” value in assay [3] was “liberated only after the sequential action of both glycosidases”.

In the case of `C=CC(C)(O)CCC=C(C)C` (stereo not drawn) [Linalol, linalool], the “Compounds liberated relative to the reference medium” value came out at 9% in assay [4] (MUST (pH 3.4, sugars 180 g/l)) and 14% in assay [4] (WINE (dry white, pH 3.1)).

Regarding `CC(C)=CCC/C(C)=C\CO[C@@H]1O[C@H](CO[C@@H]2O[C@@H](CO)[C@H](O)[C@H]2O)[C@@H](O)[C@H](O)[C@H]1O` (single isomer, unassigned) [Peak A, neryl α-L-arabinofuranosyl-(1--> 6)-β-D-glucopyranoside], in assay [2], the “Compounds appearing after action of α-arabinosidase” value is reported as “arabinose; also recorded: Glc--Ner”; the “Compounds appearing after action of α-arabinosidase and then β-glucosidase” value was “glucose; also recorded: nerol”.

Take `OCc1ccccc1` [Benzyl alcohol, benzyl alcohol]: the “Compounds liberated relative to the reference medium” value was found to be 46% in assay [4] (MUST (pH 3.4, sugars 180 g/l)) and 50% in assay [4] (WINE (dry white, pH 3.1)).
